Test results taken from PubChem BioAssay AID256 (DTP/NCI, 2004).
Several values for one entry are separate records, joined by “and”; a condition that tells them apart may be missing. Equal values may be shown once. Inconclusive results and toxic doses are left out. The calls were made as follows: active = survival T/C of 150% or more; inactive = T/C below 125% in these data.

Test system: CD2F1 mice, L1210 leukemia ip, survival T/C
Assay: NCI In Vivo Anticancer Drug Screen. Data for tumor model L1210 Leukemia (intraperitoneal) in CD2F1 (CDF1) mice
Conditions: higher = longer survival
In short: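 In this screen, transplantable tumors were grown in mice given either the compound or its vehicle. Results were expressed as the treated measurement relative to the control measurement.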

[1] = endpoint: mean survival time, dose: 100.0 mg/kg/injection, schedule: Q01DX009 (ip), vehicle: saline sonified
[2] = endpoint: mean survival time, dose: 200.0 mg/kg/injection, schedule: Q01DX009 (ip), vehicle: saline sonified
[3] = endpoint: mean survival time, dose: 400.0 mg/kg/injection, schedule: Q01DX009 (ip), vehicle: saline sonified
[4] = endpoint: mean survival time, dose: 25.0 mg/kg/injection, schedule: Q01DX009 (ip), vehicle: saline with Tween-80
[5] = endpoint: mean survival time, dose: 50.0 mg/kg/injection, schedule: Q01DX009 (ip), vehicle: saline with Tween-80
[6] = endpoint: mean survival time, dose: 100.0 mg/kg/injection, schedule: Q01DX009 (ip), vehicle: saline with Tween-80
[7] = endpoint: mean survival time, dose: 100.0 mg/kg/injection, schedule: Q04DX003 (ip), vehicle: saline with Tween-80
[8] = endpoint: mean survival time, dose: 200.0 mg/kg/injection, schedule: Q04DX003 (ip), vehicle: saline with Tween-80
[9] = endpoint: mean survival time, dose: 400.0 mg/kg/injection, schedule: Q04DX003 (ip), vehicle: saline with Tween-80
[10] = endpoint: mean survival time, dose: 100.0 mg/kg/injection, schedule: Q01DX001 (ip), vehicle: saline with Tween-80
[11] = endpoint: mean survival time, dose: 200.0 mg/kg/injection, schedule: Q01DX001 (ip), vehicle: saline with Tween-80
[12] = endpoint: mean survival time, dose: 400.0 mg/kg/injection, schedule: Q01DX001 (ip), vehicle: saline with Tween-80
[13] = endpoint: mean survival time, dose: 200.0 mg/kg/injection, schedule: Q01DX009 (ip), vehicle: saline with Tween-80
[14] = endpoint: mean survival time, dose: 400.0 mg/kg/injection, schedule: Q01DX009 (ip), vehicle: saline with Tween-80

Measured: T/C

CC(=O)c1ccc(N=NN(C)C)cc1
inactive: endpoint: mean survival time, dose: 2.37 mg/kg/injection, schedule: Q01DX009 (ip), vehicle: Klucel (hydroxypropylcellulose) (HPC) 96 % of control | endpoint: mean survival time, dose: 9.5 mg/kg/injection, schedule: Q01DX009 (ip), vehicle: Klucel (hydroxypropylcellulose) (HPC) 96 % of control | endpoint: mean survival time, dose: 19.0 mg/kg/injection, schedule: Q01DX009 (ip), vehicle: Klucel (hydroxypropylcellulose) (HPC) 110 % of control | endpoint: mean survival time, dose: 58.0 mg/kg/injection, schedule: Q01DX009 (ip), vehicle: Klucel (hydroxypropylcellulose) (HPC) 101 % of control

CC1(C)/C(=N/Nc2ccc([N+](=O)[O-])cc2[N+](=O)[O-])CCc2ccccc21
inactive: endpoint: mean survival time, dose: 12.5 mg/kg/injection, schedule: Q01DX009 (ip), vehicle: other 94 % of control | endpoint: mean survival time, dose: 25.0 mg/kg/injection, schedule: Q01DX009 (ip), vehicle: other 97 % of control | endpoint: mean survival time, dose: 50.0 mg/kg/injection, schedule: Q01DX009 (ip), vehicle: other 90 % of control | endpoint: mean survival time, dose: 100.0 mg/kg/injection, schedule: Q01DX009 (ip), vehicle: other 94 % of control | endpoint: mean survival time, dose: 200.0 mg/kg/injection, schedule: Q01DX009 (ip), vehicle: other 90 % of control

CCOC(=O)C(C)(C)CO
inactive: [1] 93 % of control | [2] 101 % of control | [3] 103 % of control | endpoint: mean survival time, dose: 800.0 mg/kg/injection, schedule: Q01DX009 (ip), vehicle: saline sonified 90 % of control

CNc1nc2c(N)ncnc2n1C1OC(CO)C(O)C1O (centres undefined)
inactive: endpoint: mean survival time, dose: 3.12 mg/kg/injection, schedule: Q01DX009 (ip), vehicle: saline 95 % of control | endpoint: mean survival time, dose: 6.25 mg/kg/injection, schedule: Q01DX009 (ip), vehicle: saline 106 % of control | endpoint: mean survival time, dose: 12.5 mg/kg/injection, schedule: Q01DX009 (ip), vehicle: saline 106 % of control and 107 % of control | endpoint: mean survival time, dose: 12.5 mg/kg/injection, schedule: Q04DX002 (ip), vehicle: saline 98 % of control | endpoint: mean survival time, dose: 25.0 mg/kg/injection, schedule: Q01DX005 (ip), vehicle: distilled water + Tween-80 96 % of control | endpoint: mean survival time, dose: 25.0 mg/kg/injection, schedule: Q01DX009 (ip), vehicle: saline 115 % of control and 101 % of control | endpoint: mean survival time, dose: 25.0 mg/kg/injection, schedule: Q04DX002 (ip), vehicle: saline 102 % of control | endpoint: mean survival time, dose: 50.0 mg/kg/injection, schedule: Q01DX005 (ip), vehicle: distilled water + Tween-80 103 % of control | endpoint: mean survival time, dose: 50.0 mg/kg/injection, schedule: Q01DX009 (ip), vehicle: saline 102 % of control | endpoint: mean survival time, dose: 50.0 mg/kg/injection, schedule: Q04DX002 (ip), vehicle: saline 112 % of control | endpoint: mean survival time, dose: 100.0 mg/kg/injection, schedule: Q01DX005 (ip), vehicle: distilled water + Tween-80 100 % of control | endpoint: mean survival time, dose: 100.0 mg/kg/injection, schedule: Q01DX009 (ip), vehicle: saline 108 % of control | endpoint: mean survival time, dose: 200.0 mg/kg/injection, schedule: Q01DX005 (ip), vehicle: distilled water + Tween-80 96 % of control | endpoint: mean survival time, dose: 400.0 mg/kg/injection, schedule: Q01DX005 (ip), vehicle: distilled water + Tween-80 101 % of control

CCOc1ccc(-c2nnc(Nc3ccc(S(=O)(=O)N4CCCCC4)cc3)s2)cc1
inactive: [4] 95 % of control | [5] 90 % of control | [6] 86 % of control

CC12CCCCC1CCC(Br)C2=O (centres undefined)
inactive: [7] 102 % of control | [8] 100 % of control | [9] 102 % of control

FC(F)Cc1ccccc1
inactive: [10] 100 % of control | [11] 94 % of control | [12] 100 % of control

COc1ccccc1NC(=S)NCCO
inactive: [6] 97 % of control | [13] 103 % of control | [14] 98 % of control

C1=Cc2ccccc2/C1=C/c1ccc(/C=C2\C=Cc3ccccc32)cc1
inactive: [6] 98 % of control | [13] 89 % of control | endpoint: mean survival time, dose: 700.0 mg/kg/injection, schedule: Q01DX009 (ip), vehicle: saline with Tween-80 89 % of control

Clc1cc2ccccc2c(Cl)n1
inactive: [10] 92 % of control | [11] 89 % of control

C=C1C(=O)O[C@@H]2[C@H]1[C@@H](OC(C)=O)C[C@H](C)[C@@H]1CCC(=O)[C@@]21C
inactive: [6] 93 % of control | [13] 89 % of control | [14] 92 % of control

O=C(C[n+]1ccccc1Cc1ccccc1)c1ccccc1
inactive: endpoint: mean survival time, dose: 25.0 mg/kg/injection, schedule: Q04DX003 (ip), vehicle: saline with Tween-80 93 % of control | endpoint: mean survival time, dose: 50.0 mg/kg/injection, schedule: Q04DX003 (ip), vehicle: saline with Tween-80 96 % of control | [7] 101 % of control

C[Si](C)(C)C1CCC2C3C=CC(C3)C21 (centres undefined)
inactive: endpoint: mean survival time, dose: 100.0 mg/kg/injection, schedule: Q04DX003 (ip), vehicle: alcohol 107 % of control | endpoint: mean survival time, dose: 200.0 mg/kg/injection, schedule: Q04DX003 (ip), vehicle: alcohol 96 % of control | endpoint: mean survival time, dose: 400.0 mg/kg/injection, schedule: Q04DX003 (ip), vehicle: alcohol 96 % of control

COc1cc(-c2ccc(-[n+]3nc(Cc4ccc5c(c4)OCO5)nn3-c3ccccc3)c(OC)c2)ccc1-[n+]1nc(Cc2ccc3c(c2)OCO3)nn1-c1ccccc1
inactive: [7] 98 % of control | [8] 97 % of control

COc1ccc(OC)c(NC(=O)Oc2ccc(F)cc2Cl)c1
inactive: [6] 101 % of control | [13] 104 % of control | [14] 102 % of control

O=C1C(=O)c2ccccc2C(O)=C1C(C1=C(O)c2ccccc2C(=O)C1=O)c1ccc(C(C2=C(O)c3ccccc3C(=O)C2=O)C2=C(O)c3ccccc3C(=O)C2=O)cc1
inactive: [1] 96 % of control | [2] 97 % of control | [3] 108 % of control

CCCCCCCCCCCC(=O)[O][Sn]([CH2]CCC)([CH2]CCC)[O]C(=O)CCCCCCCCCCC
inactive: endpoint: mean survival time, dose: 3.0 mg/kg/injection, schedule: Q04DX003 (ip), vehicle: saline with Tween-80 100 % of control | endpoint: mean survival time, dose: 6.0 mg/kg/injection, schedule: Q04DX003 (ip), vehicle: saline with Tween-80 103 % of control | endpoint: mean survival time, dose: 12.0 mg/kg/injection, schedule: Q04DX003 (ip), vehicle: saline with Tween-80 103 % of control

CC(N)CC(C)N (centres undefined)
inactive: endpoint: mean survival time, dose: 100.0 mg/kg/injection, schedule: Q04DX002 (ip), vehicle: saline 105 % of control | endpoint: mean survival time, dose: 200.0 mg/kg/injection, schedule: Q04DX002 (ip), vehicle: saline 109 % of control

O=C1CC2OCCC3CN4CCC56c7ccccc7N1C5C2C3CC46 (centres undefined)
inactive: endpoint: mean survival time, dose: 75.0 mg/kg/injection, schedule: Q01DX001 (ip), vehicle: saline 106 % of control | endpoint: mean survival time, dose: 150.0 mg/kg/injection, schedule: Q01DX001 (ip), vehicle: saline 101 % of control

COc1cc(C(=O)O)cc(OC)c1OC
inactive: [10] 97 % of control | [11] 97 % of control | [12] 97 % of control

Cc1ccc(S(=O)(=O)C2C=CC=CC=C2)cc1
inactive: [4] 98 % of control | [5] 98 % of control | [6] 94 % of control

O=C(NN=C1CCCCC1)c1ccccc1
inactive: [6] 100 % of control | [7] 97 % of control | [13] 100 % of control | [8] 100 % of control | [9] 101 % of control

O=C(O)c1cc(Cl)c(C(=O)O)cc1Cl
inactive: [7] 96 % of control | [8] 102 % of control | [9] 105 % of control

COC(=O)c1nc(SC)n(C2OC(COC(=O)c3ccccc3)C(OC(=O)c3ccccc3)C2OC(=O)c2ccccc2)c1CC#N (centres undefined)
inactive: endpoint: median survival time, dose: 9.13 mg/kg/injection, schedule: Q01DX005 (ip), vehicle: saline with Tween-80 100 % of control | endpoint: median survival time, dose: 18.25 mg/kg/injection, schedule: Q01DX005 (ip), vehicle: saline with Tween-80 98 % of control | endpoint: median survival time, dose: 36.5 mg/kg/injection, schedule: Q01DX005 (ip), vehicle: saline with Tween-80 91 % of control | endpoint: median survival time, dose: 73.0 mg/kg/injection, schedule: Q01DX005 (ip), vehicle: saline with Tween-80 98 % of control | endpoint: median survival time, dose: 146.0 mg/kg/injection, schedule: Q01DX005 (ip), vehicle: saline with Tween-80 96 % of control

CC[N+]1(Cc2ccccc2)CC2(CCCCC2)ON2C1CC(C)C2(C)C (centres undefined)
inactive: [4] 92 % of control | [5] 93 % of control
